Square brackets hold non-standard residues; d marks the D form. Ends that are not written are not given here. Nle = CCCC[C@H](N)C(=O)O
What was measured:
Assay type in all cases: cell-based, human
hBCSCs [1] = assay: Scratch (wound-healing) assay of hBCSC migration; details: 2 h treatment, 2 μM docetaxel or 1 μM TH1902; images at 24 and 48 h
Method: Inhibition of hBCSC Migration by Test Articles. Cell migration experiments were carried out using the scratch (wound-healing) assay. Cells (2.8×10^5 cells /well) were plated in 6-well plates for 24 hours and then scratched using a sterile p200 pipette tip. Cells were washed with serum-free medium to remove the detached cells, then treated for 2 hours with serum-free medium containing vehicle (DMSO), 2 μM Docetaxel, or 1 μM TH1902. Cells were rinsed with complete media and incubated for 48 hours in a fresh complete media. Images were acquired, at 0, 24 and 48 hours after scratching, with an inverted microscope.

MDA-MB-231/luc cells = assay: Cell cycle analysis (G2/M) of MDA-MB-231/luc cells; details: MDA-MB-231 cells
Method: (§1) Cell Cycle Analysis Following Treatment of hBCSC by Test Articles. hBCSCs (2.8×10^5 cells/well) and MDA-MB-231/luc cells (2.3×10^5 cells/well) were seeded in 6-well plates one day prior to treatment. To test the effects of Docetaxel and TH1902 on cell cycle phases, hBCSCs and MDA-MB-231/luc cells were treated for 2 hours in serum-free media with vehicle (DMSO), 4 μM docetaxel or 2 μM TH1902 (equimolar of docetaxel), rinsed with complete media and incubated in fresh complete media for 22 and 48 hours. For the experiments with the P-gp inhibitors, hBCSCs were first pre-treated for 30 minutes in serum-free media with vehicle (DMSO), or 10 μM cyclosporine A or PSC-833 (P-gp inhibitors). Next, cells were treated for 2 hours with 4 μM docetaxel or 2 μM TH1902 in the continued presence or absence of the P-gp inhibitors before being rinsed and incubated in fresh complete media in the continued presence or absence of the P-gp inhibitors. Cells were then incubated for 22 and 48 hours. In both assays, following the incubation, cells were detached with trypsin, fixed with ice-cold 70% EtOH and kept overnight at 4° C. Cells were washed once with PBS, after which they were stained for 30 minutes at room temperature with FxCycle™ PI/RNase Staining Solution (Thermo Scientific, Waltham, MA; #F10797). Cells were finally subjected to cell cycle analysis using a BD Accuri™ C6 flow cytometer.

hBCSCs [2] = assay: Confocal microscopy of hBCSCs (DAPI, anti-α-tubulin); details: 4 μM docetaxel or 2 μM TH1902, 48 hours post-treatment; for appearance of fragmented nuclei: DAPI
Method: Effects of Docetaxel and TH1902 on Tubulin Polymerization. hBCSCs were grown to 80% confluence on pre-coated 18 mm microscope cover slips (Celprogen, #E36102-29-CS18), rinsed with PBS and exposed to serum-free culture medium containing vehicle (DMSO), 4 μM docetaxel or 2 μM TH1902 at 37° C. Following incubation for 2 hours the cells were rinsed with complete culture medium and incubated in fresh complete medium for 48 hours. Cells were then washed with PHEM buffer (60 mM Pipes, 25 mM HEPES, 10 mM EGTA and 2 mM MgCl2, pH 6.9) and fixed for 15 minutes with 4% paraformaldehyde, then permeabilized with 1% Triton™ X-100 in PHEM buffer for 5 minutes and washed again with PHEM buffer. The cells were blocked in PBS (2.6 mM KCl, 1.4 mM KH2PO4, 136.9 mM NaCl and 6.5 mM Na2HPO4·7H2O; pH 7.2) containing 10% normal goat serum and 0.05% Triton™ and then incubated for 1 hour with 1:2000 anti-α-Tubulin primary monoclonal antibody (clone B-5-1-2, Sigma-Aldrich; #T5168) diluted in washing buffer (PBS containing 5% normal goat serum and 0.025% Triton). Cells were washed with washing buffer and incubated for 1 hour with Alexa Fluor™ 488-conjugated goat anti-mouse secondary antibody (1:1000; Invitrogen; #A-11001), washed with diluted blocking buffer, stained with DAPI ([…] in PBS, Invitrogen; #D1306) for 3 minutes, washed again in washing blocking buffer and mounted onto slides using Prolong™ Gold antifade reagent (Invitrogen, P36934). Cell images were finally digitalized by confocal microscopy (Nikon A1) and analyzed using NIH ImageJ™ Version 1.4.21 software. The excitation and emission wavelengths used for Alexa Fluor™ 488 were 488 nm and 525 nm, respectively; the excitation and emission wavelengths used for DAPI were 404 nm and 450 nm, respectively.

hBCSCs [3] = assay: Cell cycle analysis (G2/M) of hBCSCs with or without P-gp inhibitors
Method: as §1

Compound	recolonization of scratched region by hBCSCs (migration) (hBCSCs [1])	G2/M cell cycle arrest at 22 h (MDA-MB-231/luc cells)	cell morphology change versus vehicle-treated cells (hBCSCs [2])	enlargement of cells and re-organization of the microtubules (tubulin labelling) (hBCSCs [2])	appearance of fragmented nuclei (hBCSCs [2])	G2/M cell cycle arrest in the presence of CsA (hBCSCs [3]; 10 μM CsA, 4 μM docetaxel or 2 μM TH1902)	G2/M cell cycle arrest in the presence of PCC-831 (hBCSCs [3]; 10 μM inhibitor, 4 μM docetaxel or 2 μM TH1902)	proportion of cells in G2/M phase (hBCSCs [3]; no efflux inhibitor, 4 μM docetaxel or 2 μM TH1902, FIG. 6C-D)
CC(=O)O[C@@]12CO[C@@H]1C[C@H](O)[C@@]1(C)C(=O)[C@H](O)C3=C(C)[C@@H](OC(=O)[C@H](O)[C@@H](NC(=O)OC(C)(C)C)c4ccccc4)C[C@@](O)([C@@H](OC(=O)c4ccccc4)[C@H]21)C3(C)C [docetaxel, reference compound]	completely recolonized	not	visible morphology change	present in some	not seen	–	–	–
Acetyl-GVRAK(docetaxel)AGVRN(Nle)FK(docetaxel)SESY (Ac-GVRAK(docetaxel)AGVRN[Nle]FK(docetaxel)SESY) [TH1902]	remained virtually barren of hBCSC for at least 48 hours	some G2/M cell cycle arrest being detected at 22 h	visible morphology change	more evident	fragmented nuclei in many of the cells	no effect	no effect	strong increase in the proportion of cells in G2/M phase
